Laboratory results reported in patent publication US10464925B2, “Methods to induce targeted protein degradation through bifunctional molecules” (Dana-Farber Cancer Institute, Inc., priority 2015, dated 2019).
pEC50, pIC50: −log10 of the molar value. Read-outs that look alike come from different tables or passages of the source.

Tests used:
BRDT = BRDT (Homo sapiens, UniProt Q58F21); experiment: BRDT IC50 (Table 4); assay type: binding; conditions: for IC50: read-out: IC50 (nM) BRDT
PLK1 = PLK1 (Homo sapiens, UniProt P53350); experiment: PLK1 IC50 (Table 4); assay type: biochemical
797 = experiment: Cell viability, 797 cells (Table 4); assay type: cell-based; conditions: read-out: IC50 (nM) 797
CUTL1 = experiment: Cell viability, ATPlite 48 hours, CUTLL1; assay type: cell-based; conditions: CUTL1 cells
DND41 = experiment: Cell viability, ATPlite 48 hours, DND41; assay type: cell-based; conditions: DND41 cells
MOLT4 = experiment: Cell viability, ATPlite 48 hours, MOLT4; assay type: cell-based; conditions: Homo sapiens, MOLT-4; MOLT4 cells
MV4; 11 = experiment: Cell viability, ATPlite 48 hours, MV4-11; assay type: cell-based; conditions: Homo sapiens, 11 cells
NGP = experiment: Cell viability, ATPlite 72 hours; assay type: cell-based; conditions: read-out: IC50 (nM) NGP
[1] = biological target: T1, BRD4 adjoined to nanoluciferase (Nluc) (Homo sapiens, UniProt O60885+Q96SW2); experiment: BRD4 Dual Luciferase Assay; assay type: cell-based; conditions: for Emax: read-out: BRD4− Emax (percent remaining);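 as to all read-outs here: transduced reporter cells exposed to compound for 4 h, then Nluc and Fluc luminescence read, each normalized to DMSO controls and expressed as Nluc/Fluc ratio per well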
T1 construct: expressed in transfected cells

BRD4 [2] = biological target: T2, BRD4 (Homo sapiens, UniProt O60885); experiment: BRD4 Cell Western (BRD4 levels in 293T cells, LiCOR); assay type: cell-based; set-up: BRD4 levels in the cells after the dBET treatment; endogenous in cells
CRBN-DDB1 = biological target: T3, CRBN-DDB1 (Homo sapiens, UniProt Q96SW2); experiment: CRBN-DDB1 Ligand-Displacement AlphaScreen Assay (thalidomide competition); assay type: binding; conditions: biotin-thalidomide competition; read-out: THAL ALPHA (IC50);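 also: streptavidin donor and nickel chelate acceptor bead proximity signal after 30 min incubation, normalized with no-protein background as 0% and DMSO wells as 100% activity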
T3 construct: 6xHis (given for the complex); made in house; host or cells: Sf9 cells (Invitrogen), pFastBac

CRBN = biological target: T4, CRBN (Homo sapiens, UniProt Q96SW2); experiment: Intracellular CRBN Engagement Assay (dFKBP7 rescue); assay type: cell-based; conditions: competition with 80 nM dFKBP7, 3 hours; read-out: FKBP7 rescue (EC50)
T4 construct: endogenous in cells

BRD4 [3] = biological target: T2, BRD4; experiment: BRD4 AlphaScreen; assay type: binding; set-up: […]; His tag (inferred from capture on Ni-coated acceptor beads); conditions: for pIC50: read-out: BRD4 Alpha (IC50); for IC50: read-out: IC50 (nM) BRD4
LRRK2 = LRRK2 (Homo sapiens, UniProt Q5S007); experiment: LRRK2 IC50 (Table 4); assay type: biochemical
FKBP12 (36V) = FKBP12 (36V) (Homo sapiens, UniProt P62942, F37V); experiment: FKBP12 (36V) Ligand-Displacement AlphaScreen Assay; assay type: binding; conditions: biotin-SLF displacement, read-out: IC50 (nM) FKBP 36V
[4] = biological target: T5, fusion of FKBP12 to nanoluciferase (Homo sapiens, UniProt P62942+Q96SW2); experiment: FKBP Dual Luciferase Assay, wild-type 293FT, FKBP12; assay type: cell-based; conditions: 4 hours; for Dmax: read-out: Max Degradation (dual luciferase, %) FKBP
T5 construct: expressed in transfected cells

[5] = biological target: T6, fusion of mutant FKBP12 to nanoluciferase (Homo sapiens, UniProt P62942+Q96SW2, F37V); experiment: FKBP Dual Luciferase Assay, wild-type 293FT, mutant FKBP12 (36V); assay type: cell-based; conditions: 4 hours; read-out: Max Degradation (dual luciferase, %) FKBP 36V
T6 construct: expressed in transfected cells

BRD4 [6] = biological target: T2, BRD4; experiment: Immunoblot for BRD4 in MV4-11 cells; assay type: cell-based; conditions: MV4-11, 24 h
[7] = 4 hours, read-out: max degradation (dual luc)
[8] = read-out: BRD4 max degradation(%) Dual Luciferase
[9] = HEK-293T; read-out: BRD4 max degradation(%) Cell Western

Row | SMILES | IC50 (BRDT) [nM] | IC50 797 [nM] | IC50 (CUTL1) [nM] | IC50 (DND41) [nM] | IC50 (MOLT4) [nM] | IC50 (MV4; 11) [nM] | IC50 (NGP; NGP cells, Table 4) [nM] | Dmax [1, 7] [%] | Emax ([1]; BRD4 remaining at Emax) [%] | Dmax [1, 8] [%] | Dmax (BRD4 [2]; [9]) [%] | other results
1 | CC[C@@H]1C(=O)N(C)c2cnc(Nc3ccc(C(=O)NCCCCNC(=O)COc4cccc5c4C(=O)N(C4CCC(=O)NC4=O)C5=O)cc3OC)nc2N1C1CCCC1 (some centres unmarked) [dBET2] | 405 | 113 | 81.2 | 110 | 192 | 6.3 | 156 |  |  |  |  | IC50 (PLK1): 6.15 nM
2 | Cc1sc2c(c1C)C(c1ccc(Cl)cc1)=N[C@@H](CC(=O)NCCNC(=O)COc1cccc3c1C(=O)N(C1CCC(=O)NC1=O)C3=O)c1nnc(C)n1-2 (some centres unmarked) [dBET3] | 88 |  |  |  |  |  |  | 12.7 | 84 | 13 | 31.6 | Conc@Emax [1]: 0.5 µM
3 | Cc1sc2c(c1C)C(c1ccc(Cl)cc1)=N[C@@H](CC(=O)NCCCCCCNC(=O)COc1cccc3c1C(=O)N(C1CCC(=O)NC1=O)C3=O)c1nnc(C)n1-2 (some centres unmarked) [dBET5] | 110 |  |  |  |  |  |  | 53 | 44.7 | 53 | 66 | 
4 | CC[C@@H]1C(=O)N(C)c2cnc(Nc3ccc(C(=O)NCCCCCCNC(=O)COc4cccc5c4C(=O)N(C4CCC(=O)NC4=O)C5=O)cc3OC)nc2N1C1CCCC1 (some centres unmarked) [dBET7] | 549 | 16 | 29.2 | 31.4 | 46.6 |  | 131 | 54.1 | 43.7 | 54 | 63 | Conc@Emax [1]: 0.5 µM
5 | CC[C@@H]1C(=O)N(C)c2cnc(Nc3ccc(C(=O)NCCCCCCCCNC(=O)COc4cccc5c4C(=O)N(C4CCC(=O)NC4=O)C5=O)cc3OC)nc2N1C1CCCC1 (some centres unmarked) [dBET8] | 820 |  | 42 | 47.2 | 88.5 |  | 153 |  |  |  |  | 
6 | Cc1sc2c(c1C)C(c1ccc(Cl)cc1)=N[C@@H](CC(=O)NCCCOCCOCCOCCCNC(=O)COc1cccc3c1C(=O)N(C1CCC(=O)NC1=O)C3=O)c1nnc(C)n1-2 (some centres unmarked) [dBET9] | 52 | 296 | 1550 | 1520 |  | 28 | 8420 | 24.8 | 71 | 25 | 41 | 
7 | CC[C@@H]1C(=O)N(C)c2cnc(Nc3ccc(C(=O)NCCCOCCOCCOCCCNC(=O)COc4cccc5c4C(=O)N(C4CCC(=O)NC4=O)C5=O)cc3OC)nc2N1C1CCCC1 (some centres unmarked) [dBET10] | 309 | 163 | 152 | 271 | 452 | 28 | 413 | 25.3 | 73.1 | 25 | 20 | IC50 (PLK1): 10.2 nM; Conc@Emax [1]: 50 µM; pIC50 (CRBN-DDB1): 7.90; pEC50 (CRBN): 5.09; pIC50 (BRD4 [3]): 7.08; IC50 (BRD4 [3]): 83 nM
8 | COc1cc(C(=O)NCCCOCCOCCOCCCNC(=O)COc2cccc3c2C(=O)N(C2CCC(=O)NC2=O)C3=O)ccc1Nc1ncc2c(n1)N(C)c1ccccc1C(=O)N2C (centres unmarked) [dBET12] | 5870 | > 20000 |  |  |  | > 20000 |  |  |  |  |  | IC50 (LRRK2): 32 nM; pIC50 (CRBN-DDB1): 7.62; pEC50 (CRBN): 4.46
9 | Cc1sc2c(c1C)C(c1ccc(Cl)cc1)=N[C@@H](CC(=O)NCCCCCCNC(=O)c1ccc3c(c1)C(=O)N(C1CCC(=O)NC1=O)C3=O)c1nnc(C)n1-2 (some centres unmarked) [dBET15] |  | 1270 | 6840 | 10400 | 6960 | 312 |  |  |  | 18 |  | pIC50 (BRDT): 7.03; Emax [1]: 78.2%; Dmax ([1]; read-out: max degradation (dual luc)): 18.2%; IC50 (NGP; NGP): > 20000 nM; Dmax (BRD4 [2]; HEK-293T, read-out: BRD4 max degradation(%) Cell Western): 24%
10 | Cc1sc2c(c1C)C(c1ccc(C#N)cc1)=N[C@@H](CC(=O)NCCCCNC(=O)COc1cccc3c1C(=O)N(C1CCC(=O)NC1=O)C3=O)c1nnc(C)n1-2 (some centres unmarked) [dBET17] | 217 | 5020 | > 20000 | 17300 | 13500 |  | > 20000 |  |  |  |  | 
11 | Cc1sc2c(c1C)C(c1ccc(Cl)cc1)=N[C@@H](CC(=O)NCCCN1CCN(C(=O)CCCCCNC(=O)COc3cccc4c3C(=O)N(C3CCC(=O)NC3=O)C4=O)CC1)c1nnc(C)n1-2 (some centres unmarked) [dBET18] | 28 | 1360 | 2840 | 1790 | 1920 |  | 4960 | 36.5 | 65.4 | 37 | 57 | pIC50 (CRBN-DDB1): 8.80; pEC50 (CRBN): 3.13; pIC50 (BRD4 [3]): 7.96; IC50 (BRD4 [3]): 11 nM
12 | Cc1c(CC#N)sc2c1C(c1ccc(Cl)cc1)=N[C@@H](CC(=O)NCCCCNC(=O)COc1cccc3c1C(=O)N(C1CCC(=O)NC1=O)C3=O)c1nnc(C)n1-2 (some centres unmarked) [dBET19] | 1130 | > 20000 |  |  |  |  |  | -1.3 | 93.3 | > 5 |  | pIC50 (CRBN-DDB1): 8.44; pEC50 (CRBN): 2.36; pIC50 (BRD4 [3]): 6.67; IC50 (BRD4 [3]): 212 nM
13 | CCC(C)(C)C(=O)C(=O)N1CCC[C@H]1C(=O)O[C@H](CCc1ccc(OC)c(OC)c1)c1cccc(OCC(=O)NCCCCNC(=O)COc2cccc3c2C(=O)N(C2CCC(=O)NC2=O)C3=O)c1 (some centres unmarked) [dFKBP-3] |  |  |  |  |  |  |  |  |  |  |  | IC50 (FKBP12 (36V)): 1200 nM; Dmax [4]: 22%; Dmax [5]: 12%
14 | CCC(C)(C)C(=O)C(=O)N1CCCC[C@H]1C(=O)O[C@H](CCc1ccc(OC)c(OC)c1)c1cccc(OCC(=O)NCCCCNC(=O)COc2cccc3c2C(=O)N(C2CCC(=O)NC2=O)C3=O)c1 (some centres unmarked) [dFKBP-4] |  |  |  |  |  |  |  |  |  |  |  | IC50 (FKBP12 (36V)): 369 nM; DC50 [4]: 2.97 nM; Dmax [4]: 34%; Dmax [5]: 21%
15 | COc1ccc(CC[C@@H](OC(=O)[C@@H]2CCCCN2C(=O)Cc2ccccc2)c2cccc(OCC(=O)NCCCCNC(=O)COc3cccc4c3C(=O)N(C3CCC(=O)NC3=O)C4=O)c2)cc1OC (some centres unmarked) [dFKBP-5] |  |  |  |  |  |  |  |  |  |  |  | IC50 (FKBP12 (36V)): 2290 nM; Dmax [4]: 11%; Dmax [5]: < 5%
16 | O=C1CCC(N2C(=O)c3ccccc3C2=O)C(=O)N1 (centres unmarked) [thalidomide] |  |  |  |  |  |  |  |  |  |  |  | BRD4 degradation by treatment alone (BRD4 [6]): insufficient to induce BRD4 degradation
